pEC50: −log10 of the molar value. Read-outs that look alike come from different tables or passages of the source.
Key:
MKN45 cells = experiment: MKN45 cell proliferation assay (Cell-Titer-Glo, 120 h); assay type: cell-based; conditions: for pEC50: Homo sapiens, MKN-45, 120 h, Cell-Titer-Glo, read-out: MKN45 Cell Prolif. 120 hr (EC50); for MKN45 Cell Prolif. 120 hr (Ymin-Obs): minimal percent of DMSO control observed in the concentrations tested
In short: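 Cells seeded at 400/well onto pre-printed 10-point half-log dilutions (top 1 or 10 uM, 0.1% DMSO final), in triplicate, and grown 120 h at 37 C. Viability by Cell-Titer-Glo luminescence, blank-subtracted and normalised to DMSO; EC50 from four-parameter logistic fit, with observed minimal % of control recorded as Ymin-obs.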

WEE1 = biological target: T1, WEE1 (Homo sapiens, UniProt P30291+Q96SW2); experiment: WEE1-ePL degradation assay (LentiX-WEE1-ePL-GSPT1-ND cells, InCELL Hunter luminescence, 4 h); assay type: cell-based; conditions: 293T-LentiX WEE1-ePL cells; for DC50: read-out: 293T-LentiX WEE1-ePL Degradation 4 hr (EC50)
T1 construct: C-terminal ePL-tagged (DiscoverX, Fremont, CA) full-length WEE1 expression construct; expressed in transfected cells; host or cells: LentiX-HEK293T (Invitrogen), lentiviral transduction; co-expressing GSPT1-GN (G576N, lacking the first 158 amino acids)
In short: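 First, compounds were pre-plated as 10-point, 3-fold dilutions (top 1 uM or 10 uM) with DMSO control; next, WEE1-ePL-expressing HEK293T cells were added and held 4 h at 37 °C; finally, InCELL Hunter reagent was applied for 30 min before luminescence reading. A 4PL fit gave EC50 and Ymin.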

[1] = lower limit of the fit (0 = luciferase inhibitor, Ymax = DMSO control)
[2] = lower limit of the fit (Ymin=0 luciferase inhibitor, Ymax DMSO control)

Row | SMILES | pEC50 (MKN45 cells; growth inhibition) | 293T-LentiX WEE1-ePL Degradation 4 hr (Ymin) (WEE1; [1]) | DC50 (WEE1) [µM] | pEC50 (MKN45 cells) | 293T-LentiX WEE1-ePL Degradation 4 hr (Ymin) (WEE1; [2]) | MKN45 Cell Prolif. 120 hr (Ymin-Obs) (MKN45 cells)
1 | O=C1CC[C@H](N2Cc3cc(O[C@H]4CCN(Cc5cc(Cl)c6nc(N7CCOCC7)ncc6c5)C4)ccc3C2=O)C(=O)N1 [(3S)-3-(5-{[(3S)-1-{[8-chloro-2-(morpholin-4-yl)quinazolin-6-yl]methyl}pyrrolidin-3-yl]oxy}-1-oxo-2,3-dihydro-1H-isoindol-2-yl)piperidine-2,6-dione] | – | – | 0.00288 | 7.96 | 38.34 | 12.54
2 | O=C1CCC(N2Cc3cc(O[C@@H]4CN(Cc5ccc6nc([C@H]7CCOC7)ccc6c5)C[C@H]4C(F)(F)F)ccc3C2=O)C(=O)N1 (stereo partly drawn) [3-(1-oxo-5-{[(3S,4R)-1-({2-[(3R)-oxolan-3-yl]quinolin-6-yl}methyl)-4-(trifluoromethyl)pyrrolidin-3-yl]oxy}-2,3-dihydro-1H-isoindol-2-yl)piperidine-2,6-dione] | – | – | 0.00364 | 7.64 | 27.14 | 24.26
3 | Cc1ccc2cc(CN3C[C@@H](Oc4ccc5c(c4)CN(C4CCC(=O)NC4=O)C5=O)C[C@H]3C)ccc2n1 (stereo partly drawn) [3-(5-{[(3S,5R)-5-methyl-1-[(2-methylquinolin-6-yl)methyl]pyrrolidin-3-yl]oxy}-1-oxo-2,3-dihydro-1H-isoindol-2-yl)piperidine-2,6-dione] | < 5.00 | 88.5 | – | – | – | 80.29
4 | CC1(C)C[C@H](c2ccc3cc(CN4CC[C@H](Oc5ccc6c(c5)CN([C@H]5CCC(=O)NC5=O)C6=O)C4)ncc3c2)CCO1 [(3S)-3-(5-{[(3S)-1-({7-[(4R)-2,2-dimethyloxan-4-yl]isoquinolin-3-yl}methyl)pyrrolidin-3-yl]oxy}-1-oxo-2,3-dihydro-1H-isoindol-2-yl)piperidine-2,6-dione] | – | – | 0.00109 | 9.23 | 24.44 | 9.482
5 | O=C1CCC(N2Cc3cc(O[C@H]4CCN(Cc5ccc6c(c5)OC(=O)CN6)C4)ccc3C2=O)C(=O)N1 (stereo partly drawn) [3-(1-oxo-5-{[(3S)-1-[(2-oxo-3,4-dihydro-2H-1,4-benzoxazin-7-yl)methyl]pyrrolidin-3-yl]oxy}-2,3-dihydro-1H-isoindol-2-yl)piperidine-2,6-dione] | < 5.00 | 80 | – | – | – | 90.28
6 | CN1CCCc2cc(CN3CC[C@H](Oc4ccc5c(c4)CN(C4CCC(=O)NC4=O)C5=O)C3)cnc21 (stereo partly drawn) [3-(5-{[(3S)-1-[(8-methyl-5,6,7,8-tetrahydro-1,8-naphthyridin-3-yl)methyl]pyrrolidin-3-yl]oxy}-1-oxo-2,3-dihydro-1H-isoindol-2-yl)piperidine-2,6-dione] | < 5.00 | 58 | 0.0191 | – | – | 79.28
7 | Cc1ccc2cc(CN3CC[C@H](Oc4ccc5c(c4)CN(C4CCC(=O)NC4=O)C5=O)C3)ncc2c1 (stereo partly drawn) [3-(5-{[(3S)-1-[(7-methylisoquinolin-3-yl)methyl]pyrrolidin-3-yl]oxy}-1-oxo-2,3-dihydro-1H-isoindol-2-yl)piperidine-2,6-dione] | 7.15 | 32.315 | 0.0122 | – | – | 15.68
8 | O=C1CCC(N2Cc3cc(O[C@H]4CCN(Cc5ccc(C(F)(F)F)cn5)C4)ccc3C2=O)C(=O)N1 (stereo partly drawn) [3-(1-oxo-5-{[(3S)-1-{[5-(trifluoromethyl)pyridin-2-yl]methyl}pyrrolidin-3-yl]oxy}-2,3-dihydro-1H-isoindol-2-yl)piperidine-2,6-dione] | 6.44 | 53.66 | 0.0526 | – | – | 65.6

More lines, main results first:

Row | pEC50 (MKN45 cells; growth inhibition) | 293T-LentiX WEE1-ePL Degradation 4 hr (Ymin) (WEE1; [1]) | DC50 (WEE1) [µM] | pEC50 (MKN45 cells) | 293T-LentiX WEE1-ePL Degradation 4 hr (Ymin) (WEE1; [2]) | SMILES | MKN45 Cell Prolif. 120 hr (Ymin-Obs) (MKN45 cells)
9 | 7.89 | 33 | 0.018 | – | – | O=C1CC[C@H](N2Cc3cc(O[C@H]4CCN(Cc5ccc6nc([C@@H]7CCOC7)ncc6c5)C4)ccc3C2=O)C(=O)N1 | 9.409
10 | 7.93 | 26.91 | 0.00427 | – | – | CNC(=O)c1ccc2cc(CN3CC[C@H](Oc4ccc5c(c4)CN(C4CCC(=O)NC4=O)C5=O)C3)ccc2n1 (stereo partly drawn) [6-{[(3S)-3-{[2-(2,6-dioxopiperidin-3-yl)-1-oxo-2,3-dihydro-1H-isoindol-5-yl]oxy}pyrrolidin-1-yl]methyl}-N-methylquinoline-2-carboxamide] | 9.36
11 | 9.03 | 29 | 0.00283 | – | – | CO[C@@H]1CCC[C@@H](c2ccc3cc(CN4CC[C@H](Oc5ccc6c(c5)CN(C5CCC(=O)NC5=O)C6=O)C4)ccc3n2)C1 (stereo partly drawn) [3-(5-{[(3S)-1-({2-[(1R,3R)-3-methoxycyclohexyl]quinolin-6-yl}methyl)pyrrolidin-3-yl]oxy}-1-oxo-2,3-dihydro-1H-isoindol-2-yl)piperidine-2,6-dione] | 7.97
12 | 8.58 | 28.9 | 0.00122 | – | – | COC[C@H]1CC[C@@H](c2ccc3cc(CN4CC[C@H](Oc5ccc6c(c5)CN(C5CCC(=O)NC5=O)C6=O)C4)ccc3n2)CC1 (stereo partly drawn) [3-(1-oxo-5-{[(3S)-1-({2-[(1s,4s)-4-(methoxymethyl)cyclohexyl]quinolin-6-yl}methyl)pyrrolidin-3-yl]oxy}-2,3-dihydro-1H-isoindol-2-yl)piperidine-2,6-dione] | 12.53
13 | 7.04 | 37 | 0.0674 | – | – | CN1CC[C@@H](c2ccc3cc(CN4CC[C@H](Oc5ccc6c(c5)CN(C5CCC(=O)NC5=O)C6=O)C4)ccc3n2)C1 (stereo partly drawn) [3-(5-{[(3S)-1-({2-[(3R)-1-methylpyrrolidin-3-yl]quinolin-6-yl}methyl)pyrrolidin-3-yl]oxy}-1-oxo-2,3-dihydro-1H-isoindol-2-yl)piperidine-2,6-dione] | 11.69
14 | – | – | 0.00134 | 8.99 | 34.39 | O=C1CC[C@H](N2Cc3cc(O[C@H]4CCN(Cc5cc(F)c6nc([C@H]7CCOC7)ccc6c5)C4)ccc3C2=O)C(=O)N1 [(3S)-3-(5-{[(3S)-1-({8-fluoro-2-[(3R)-oxolan-3-yl]quinolin-6-yl}methyl)pyrrolidin-3-yl]oxy}-1-oxo-2,3-dihydro-1H-isoindol-2-yl)piperidine-2,6-dione] | 9.528
15 | 8.32 | 32.5 | 0.00619 | – | – | CO[C@H]1CC[C@H](c2ccc3cc(CN4CC[C@H](Oc5ccc6c(c5)CN(C5CCC(=O)NC5=O)C6=O)C4)ccc3n2)C1 (stereo partly drawn) [3-(5-{[(3S)-1-({2-[(1S,3S)-3-methoxycyclopentyl]quinolin-6-yl}methyl)pyrrolidin-3-yl]oxy}-1-oxo-2,3-dihydro-1H-isoindol-2-yl)piperidine-2,6-dione] | 8.927
16 | 7.79 | 31.33 | 0.0072 | – | – | O=C1CCC(N2Cc3cc(O[C@H]4CCN(Cc5ccc6nc(N7CCOCC7)ncc6c5)C4)ccc3C2=O)C(=O)N1 (stereo partly drawn) [3-(5-{[(3S)-1-{[2-(morpholin-4-yl)quinazolin-6-yl]methyl}pyrrolidin-3-yl]oxy}-1-oxo-2,3-dihydro-1H-isoindol-2-yl)piperidine-2,6-dione] | 9.637

— patent US20240067632A1, “WEE1 Degrading Compounds and Uses Thereof” (Bristol-Myers Squibb Company, priority 2022, published 2024)
